According to patent publication US20210393807A1, “PHOTOACOUSTIC VOLTAGE-SENSITIVE DYES FOR IN VIVO IMAGING” (The Johns Hopkins University, priority 2016, published 2021):
Several values for one entry are separate records, joined by “and”; a condition that tells them apart may be missing. Identical values can stand only once. Entries after “also recorded” stand apart in the source; their conditions may differ.

Legend:
[1] = Photoacoustic characterization of PA-VSD in lipid vesicle phantom; assay type: physicochemical; conditions: 800 nm; for fractional PA intensity change upon polarization: 20 samples
Description: (§1) Lipid vesicles were prepared from 25-mg soybean phosphatidylcholine (type II) suspended in 1 mL of K^+ buffer, which contains 100 mM K2SO4 and 20 mM HEPES. This suspension was vortexed for 10 min and sonicated in bath-type sonicator for 60 min, yielding a translucent vesicle suspension. A Na^+ buffer containing 100 mM Na2SO4 and 20 mM HEPES was prepared. During experiments, 10 μL of vesicle suspension was added to 1 mL of Na^+ buffer, resulting in an approximately 100:1 K^+ gradient across vesicle membrane. VSD was added to this suspension. When 2.5 μL of 10 μM valinomycin—a K^+ specific ionophore—was added, K^+ ions were transported from inside to outside of vesicle membranes, resulting in a negative membrane potential. This negative potential drives the positively charged VSDs into the vesicles, which causes aggregation of dyes and quenching of fluorescence. Subsequent addition of 2.5 μL of 1 mM gramicidin, a nonspecific monovalent cation ionophore, allows Na^+ cations to move from outside to inside of vesicle membranes to short circuit the membrane potential.
The PA sensing system was employed for the characterization of the synthesized PA-VSD (FIG. 3); Q-switched Nd:YAG laser integrated with an optical parametric oscillator (Phocus Inline and MagicPrism, Opotek Inc.) was used for PA signal generation. With the tunability of the laser system, the spectral responses for near-infrared wavelengths (i.e., 700 to 850 nm at 10-nm interval) were scanned with 20-Hz pulsed repetition frequency and […]. The light was delivered through an optical fiber bundle with a 9-mm round shaped output, which was aligned with an ultrasound receiver. The PAVSD in the lipid vesicles suspension was loaded into transparent tubes with 1.27-mm diameter (AAQ04133, Tygon®, SaintGobain Corp.), which were located at around 30 mm depth in the water tank. Note that the temperature of the water was consistently maintained at 22° C. during the experiments. A 10-MHz linear ultrasound probe (L 14-5/38, Ultrasonix Corp.) was used for PA-VSD sensing in a practical circumstance with a limited bandwidth (i.e., 75%-6 dB fractional bandwidth). Similarly, a hydrophone with wide flat bandwidth from 250 kHz to 20 MHz (HGL-1000, Onda Corp., California) was used to collect single line radio-frequency (RF) PA pressure signal. Twenty sets of PA data were collected, in which 19 of them were collected using the linear array transducer, and the other was through the hydrophone, and the average and standard deviation values were calculated. The PA signals acquired at the depth of target were used to form an averaged RF signal, which is further processed to present PA intensity at each optical wavelength; this permitted an accurate correlation with the spectrophotometric measurements. For the imaging setup, one set of data was obtained using the linear array transducer from 9 μM PA-VSD at 800-nm optical wavelength, and the difference between the resting and polarized states was analyzed.

[2] = Spectrophoto/fluorometric characterization of PA-VSD in lipid vesicle suspension (valinomycin/gramicidin); assay type: physicochemical; conditions: for fluorescence quenching (fractional change in fluorescence) upon valinomycin polarization: 9 μM concentration, emission 825 nm
Description: as §1, with “This suspension was vortexed for 10 min and sonicated in bath-type sonicator for 60 min, yielding a translucent vesicle suspension.” left out
A combined spectrophoto/fluorometer system (Spectramax i3x, Molecular Devices) was used to measure both fluorescence and absorbance of the PA-VSD with 1, 3, 6, and 9 μM concentrations. For fluorescence, the measurement was conducted for the spectral range from 750 to 850 nm at 10-nm increment, and the absorbance was measured in the range from 600 to 900 nm at 5-nm increments. Note that 720-nm wavelength was used for excitation during spectrofluorometry of the PA-VSD.

rat motor cortex [3] = experiment: EEG validation of seizure activity in the in vivo protocol; conditions: IV VSD treatment; anesthetized rats
Description: 2.5.9 EEG validation of neural seizure activity. To obtain the EEG records of electrical spike discharges that originated from motor cortex shown in FIG. 14, sub-dermal scalp EEG recording electrodes were located at the corresponding locations on motor cortex indicated by Xs in FIG. 21A, the schematic of the rat cranium (three electrodes, 1 recording and 1 reference over motor cortex, 1 ground electrode over rostrum). The EEG signal at motor cortex was recorded with the identical preparation procedures in PA imaging including animal preparation, administration of IR780, Lexiscan, and PTZ, time duration for recording, and interval between sequences in the protocol. Data acquisition was done using Sirenia software (Pinnacle Technologies Inc., Kansas, USA) with synchronous video capture. […] The files were stored in .EDF format and scored manually for protocol stages using real time annotations added to the recording during the experiments.

rat brain motor cortex = experiment: Transcranial PA imaging of chemoconvulsant (PTZ) seizure neural activity; assay type: in vivo, Sprague Dawley rats; conditions: for neural activity index (fractional change vs baseline): baseline 1.00±0.20
Text: (§2) 2.5.1 Photoacoustic imaging setup. For the recording of electrophysiological brain activities in vivo, an ultrasound research system was utilized that consisted of ultrasound array transducer (L 14-5/38) connected to a real-time data acquisition system (SonixDAQ, Ultrasonix Medical Corp., Canada). To induce the PA signals, pulsed laser light was generated by a second-harmonic (532 nm) Nd:YAG laser pumping an optical parametric oscillator (OPO) system (Phocus Inline, Opotek Inc., USA). The tunable range of the laser system was 690-900 nm and the maximum pulse repetition frequency was 20 Hz. The laser pulse was delivered into the probe through bifurcated fiber optic bundles, each 40 mm long and 0.88 mm wide. The PA probe was located at around the Interaural 11.2 mm and Bregma 2.2 mm to obtain the cross-section of motor cortexes (FIG. 15). The energy density at skin surface was only 3.5 mJ/cm^2, which is far below the ANSI safety limit restricting the 5-ns pulsed laser exposure at 700-1400 nm of wavelength range to be lower than 20 mJ/cm^2. 2.5.2 Lipid vesicle phantom preparation for VSD validation. The lipid vesicle model was prepared using the same procedure as in Zhang et al (Zhang, et al., 2017); 25-mg soybean phosphatidyl-choline (type II) suspended in 1 mL of K^+ buffer was used as the lipid vesicles. This vesicle contains 100 mM K2SO4 and 20 mM HEPES. The suspension was vortexed for 10 min, and followed by 60 min of sonication within bath-type sonicator to yield a translucent vesicle suspension. A Na^+ buffer was also prepared, which contains 100 mM Na2SO4 and 20 mM HEPES. Afterwards, approximately a 100:1 K^+ gradient across vesicle membrane was established with 10 μL of lipid vesicle suspension added to 1 mL of Na^+ buffer. In the vesicle phantom prepared, negative membrane potential (polarized state) was mimicked by adding 2.5 μL of 10 μM valinomycin—a K^+ specific ionophore, thereby K^+ ions were transported from inside to outside of vesicle membranes.
2.5.4 Animal preparation. For the proposed in vivo experiments. […]

[4] = Photoacoustic measurement and quantum yield estimation of near-infrared VSD in lipid vesicle phantom; assay type: physicochemical; conditions: for PA intensity decrease in depolarization state compared to polarized state (pure VSD contrast): 790 nm
Text: as §2
Otherwise, 2.5 μL of 1 mM gramicidin, a nonspecific monovalent cation ionophore, enables Na+ cations to move from outside to inside of vesicle membranes to short circuit the membrane potential (depolarized state).
2.5.3 Estimation of quantum yield change of VSD. The quantum yields of the near-infrared VSD in depolarized states […] were estimated based on the Eq. 8 and 9 disclosed previously. […] The quantum yield in the polarized state (ΦF) were also estimated by compensating for the absorbance and fluorescence emission changes when depolarized: ΦF=(CF/Cabs)Φ′F.

[5] = system: blood-brain barrier (BBB); experiment: PA intensity monitoring of VSD penetration through BBB with regadenoson; assay type: in vivo, rat; conditions: brain tissue region; intravenous; last 2 min (8-10 min), 480 time points
Description: (Carman, et al., 2011) For preliminary studies, the dosage and IV administration method indicated by the manufacturer was utilized. A volume of 150 μl of the standard concentration of 0.08 mg/1 ml was given to each animal regardless of the weight, followed by 150 μl flush of 0.9% sodium chloride for injection. VSD penetration was expected during the Lexiscan's biological half-life, i.e., 2-4 minutes, thereby the experimental protocol was designed based on the pharmacological assumption. In vivo experimental protocol. The in vivo protocols were respectively designed for three experimental groups: negative control, control, and seizure groups. […] Note that each data acquisition was performed for 10 min to cover the biological half-life of Lexiscan (2-3 min). Each dosing protocol of Lexiscan and VSD was as follows: through the jugular vein catheter port located in the neck, 150 μl of Lexiscan 0.4 mg/5 ml concentration was injected, and 300 μl of VSD was subsequently administrated at 0.1 mg/ml concentration, followed by 150 μl of saline solution flush. […] The negative control group was designed to validate the incapability of Lexiscan and PTZ to generate any bias on PA neural activity detection by excluding VSD administration. […]

rat motor cortex [6] = experiment: VSD toxicity study, EEG during direct cortical application via cranial window; assay type: in vivo
Description: 2.5.10 Validation of protocol for using sub-dermal EEG electrodes to determine toxic CNS effects of VSDs. VSDs effect on EEG signal from sub-dermal scalp electrodes was investigated in a pilot by direct cortical applications of increasing concentrations of VSDs in anesthetized rat with limited craniotomies while recording synchronous vEEGs (FIG. 21).
Increasing concentrations of VSD were tested in the same rat at temporally spaced time-points. Rats were anesthetized with IP injection to ketamine/xylazine and a cranial window made over the right motor cortex. After recording a baseline EEG in the rat for 10-min duration with the craniotomy, the follow-on EEG recording continued to record EEG following application of increasing concentrations of vehicle alone and VSD+ vehicle for the same duration of EEG recordings (i.e., 10 min) allowing comparisons of EEG responses to each increasing gradient of VSD on cortical activity as compared to baseline EEG signature in the same rat.

[7] = Spectrophotometric measurements of near-infrared VSD in lipid vesicle phantom; assay type: physicochemical
Text: as §2, with “Afterwards, approximately a 100:1 K^+ gradient across vesicle membrane was established with 10 μL of lipid vesicle suspension added to 1 mL of Na^+ buffer. In the vesicle phantom prepared, negative membrane potential (polarized state) was mimicked by adding 2.5 μL of 10 μM valinomycin—a K^+ specific ionophore, thereby K^+ ions were transported from inside to outside of vesicle membranes.” left out
Otherwise, 2.5 μL of 1 mM gramicidin, a nonspecific monovalent cation ionophore, enables Na+ cations to move from outside to inside of vesicle membranes to short circuit the membrane potential (depolarized state). From these controls, our near-infrared VSD positively charged can move in and out through the vesicle membrane, leading to the change in fluorescence quenching depending on their aggregation status.

[8] = in vivo; cited from earlier work
[9] = estimated with theoretical model
[10] = direct cortical application, 100×

CCN1/C(=C/C=C/C=C/C=C/C2=[N+](CC)c3ccc4ccccc4c3C2(C)C)C(C)(C)c2c1ccc1ccccc21.[I-] [PAVSD800-2]
fractional PA intensity change upon polarization ([1]; 1 μM): 17%
fractional PA intensity change upon polarization ([1]; 3 μM): 24%
fractional PA intensity change upon polarization ([1]; 6 μM): 17%
PA intensity increase in the polarized state ([1]; 6 μM, typical experiment): 14%
fractional PA intensity change upon polarization ([1]; 9 μM): 17%
fractional change of PA signals ([1]; 9 μM, dataset chosen for reconstructed PA images): 22.72%
fluorescence quenching (fractional change in fluorescence) upon valinomycin polarization [2]: up to 49%
fluorescence quenching (fractional change in fluorescence) upon valinomycin polarization ([2]; listed as PA-VSD): 49%
fluorescence emission ([2]; in the presence of lipid membranes): 828 nm

CCCN1/C(=C/C=C2\CCCC(/C=C/C3=[N+](CCC)c4ccccc4C3(C)C)=C2Cl)C(C)(C)c2ccccc21.[I-] [IR780, IR780 perchlorate]
PTZ evolution of status on EEG (rat motor cortex [3]): did not alter
neural activity index (fractional change vs baseline) (rat brain motor cortex; control group (VSD+Lexiscan, no PTZ)): 0.93±0.25
neural activity index (fractional change vs baseline) (rat brain motor cortex; seizure group (VSD+Lexiscan+PTZ), motor cortex, 790 nm): 2.40±0.42
PA intensity decrease in depolarization state compared to polarized state (pure VSD contrast) [4]: 12.3±6.7%
PA intensity decrease in depolarization state compared to polarized state (pure VSD contrast) ([4]; listed as VSD): 12.3% and 12.22%
quantum yield in the depolarized state [4, 9]: 0.28±0.10
quantum yield in the polarized state [4, 9]: 0.17±0.06
fractional increase of PA intensity from the natural condition (VSD−, Lexiscan−) [5]: 1.09±0.09
course of EEG suppression (rat motor cortex [6]; 100×, over the 10-min recording period): recovered to baseline
EEG effect of 100× solution (rat motor cortex [6]; [10]): significant EEG background suppression
rats with significant EEG background suppression (rat motor cortex [6]; [10]): 4/6
effect on baseline EEG (rat motor cortex [6]; direct cortical application, lower concentrations, 10-min recordings): no effect in altering the baseline EEG; also recorded: remained unaltered
peak absorbance [7]: 790 nm
absorbance change between polarized and depolarized states ([7]; valinomycin and gramicidin): 3%
fluorescence emission change between polarized and depolarized states ([7]; valinomycin and gramicidin): 40.1%

CNC(=O)c1cnn(-c2nc(N)c3ncn([C@@H]4O[C@H](CO)[C@@H](O)[C@H]4O)c3n2)c1 [Lexiscan, regadenoson]
biological half-life [8]: 2-4 min and 2-3 min
neural activity index (rat brain motor cortex; negative control group without VSD, Lexiscan+/PTZ−): 0.92±0.23
